{"source": "a melting point compilation (Tetko et al.; mined from patent text by program, amines drawn as free bases though some values may be those of a salt)"}
{"units": {"melting point": "°C"}}
{"smiles": "CC(C)N(c1cccc2cc(C(N)=S)[nH]c12)S(=O)(=O)c1cccs1", "melting point": "204 to 205"}
{"smiles": "COCC1CCCN1CCC1CCN(c2nc(=O)c3c(C)c(OC)c(OC)cc3[nH]2)CC1", "note": "(centres undefined)", "melting point": "83.1 to 111"}
{"smiles": "CCc1cnc(NC(=O)C2c3ccccc3Oc3ccccc32)o1", "melting point": "212 to 213"}
{"smiles": "O=C(O)c1cc2cc(C3CCCCC3)ccc2nn1", "melting point": "159 to 161"}
{"smiles": "[N-]=[N+]=NC[C@H]1OC(O)[C@H](O)[C@@H](O)[C@@H]1O", "note": "(some centres undefined)", "melting point": "128 to 130"}
{"smiles": "CCOC(=O)C1=C(C)NC(C)=C(C(=O)OCC)C1c1cccc(F)c1F", "melting point": "161 to 162"}
{"smiles": "Cn1ncc(C(=O)O)c1C(=O)Nc1ccn2nc(Br)nc2c1", "melting point": "> 250"}
{"smiles": "c1ccc2c3c4c(nc2c1)CCCC4SCCN3", "note": "(centres undefined)", "melting point": "171 to 175"}
{"smiles": "Cc1ncc([N+](=O)[O-])cc1Nc1nccc(-c2ccccc2)n1", "melting point": 133}
{"smiles": "OCCOc1ccc2c(c1)oc1cc(Cl)ccc12", "melting point": "118 to 120"}
{"smiles": "COC=C(C(=O)OC)c1ccccc1O", "melting point": "125 to 126"}
{"smiles": "CON=C(C1=NCCO1)c1ccccc1Oc1ccc(C(F)(F)F)cn1", "melting point": "97 to 100"}
{"smiles": "CON=C(C)COc1c(-c2ccc(S(C)(=O)=O)cc2)cnn(-c2ccc(F)c(F)c2)c1=O", "melting point": "143 to 145"}
{"smiles": "COc1cc(C(=O)N2Cc3ccc(C(=O)C(Cl)(Cl)Cl)n3Cc3ccccc32)ccc1-c1ccccc1C", "melting point": "221 to 222"}
{"smiles": "Fc1ccc(Nc2ncnc3cnc(N4CCC(CCCC5CCNCC5)CC4)nc23)cc1Cl", "melting point": "128 to 130"}
{"smiles": "O=c1[nH]c2cc(C(F)(F)F)c(-n3ccnc3)cc2n2c(=S)[nH]nc12", "melting point": "> 300"}
{"smiles": "COC(=O)c1ccccc1C1CC(c2ccccc2)=NO1", "note": "(centres undefined)", "melting point": "93.5 to 95"}
{"smiles": "O=C1c2ccccc2C(=O)N1CC(O)c1cnc(-c2ccccc2)nc1-c1ccccc1", "note": "(centres undefined)", "melting point": "149 to 159"}
{"smiles": "CC(=O)NC1=NN(c2ccccc2)C(C)C1", "note": "(centres undefined)", "melting point": "144 to 146"}
{"smiles": "CNC1(C)CN(c2cc3c(cc2F)c(=O)c(C(=O)O)cn3C(C)(C)C)C1", "melting point": "251 to 253"}
{"smiles": "C=CC(=O)NCc1ccc(CCCl)cc1", "melting point": "145 to 147"}
{"smiles": "CCCc1n[nH]c(C(N)=O)c1N", "melting point": "196 to 201"}
{"smiles": "CC(C)(Sc1ccc2c(-c3ccc(Cl)cc3)noc2c1)C(=O)O", "melting point": "176 to 177"}
{"smiles": "O=c1c2cc(F)ccc2nc(C(S)c2ncnc3[nH]cnc23)n1-c1ccccc1Cl", "note": "(centres undefined)", "melting point": 233}
{"smiles": "CC(=O)n1c2ccccc2c2ccccc21", "melting point": "70 to 71"}
{"smiles": "C[C@H](NC(=O)C[C@@H](CC(=O)O)c1ccc(F)cc1)c1ccccc1", "melting point": "195 to 196"}
{"smiles": "NS(=O)(=O)c1ccc2c(c1)C(=O)c1ccccc1C2=O", "melting point": "258 to 261"}
{"smiles": "O=C1c2ccccc2C(=O)N1CCCCCCc1cnc2ccccc2c1", "melting point": "90 to 91"}
{"smiles": "CCOC(=O)c1c(C)c(C(=O)O)c(C)n1C", "melting point": "197 to 198"}
{"smiles": "COC1=CC(C=C(C#N)C(=O)O)CC(OC)=C1OC", "note": "(centres undefined)", "melting point": "102 to 105"}
{"smiles": "ON=C(Cl)c1ccc(C(Cl)=NO)cc1", "melting point": "178 to 180"}
{"smiles": "COc1ccc(C=C2SC(=S)N(CC(=O)O)C2=O)cc1-c1cc2c(cc1C)C(C)(C)CCC2(C)C", "melting point": "242 to 244"}
{"smiles": "CC(=O)c1cc(Cl)c(N)c(C#N)c1F", "melting point": "180 to 182"}
{"smiles": "Cc1ccc(CNC(=O)C2=C3N(CCC2=O)c2ccccc2N3CCN(C)C)cc1", "melting point": "120 to 122"}
{"smiles": "O=C(/C=C/C=C(c1ccccc1)c1ccccc1)Oc1ccc([N+](=O)[O-])cc1", "melting point": "113 to 115"}
{"smiles": "CC(C)(C)OC(=O)CN1CC(c2cccs2)SCC(N)C1=O", "note": "(centres undefined)", "melting point": "81 to 82"}
{"smiles": "N#CNC=Nc1ccc(-c2c[nH]cn2)cc1", "melting point": "234 to 235"}
{"smiles": "CC1(C)CCC2=C1CCC1C3CC(C#N)C(=O)C=C3CCC21", "note": "(centres undefined)", "melting point": "163 to 165"}
{"smiles": "CC(=O)OC1CSC(Oc2ccc3sc(C)nc3c2)C(OC(C)=O)C1OC(C)=O", "note": "(centres undefined)", "melting point": 158}
{"smiles": "CO[C@H]1O[C@@H](C)[C@@H]2[C@H](O)[C@H]3CCCC[C@@H]3C[C@H]12", "melting point": "123 to 124"}
{"smiles": "CCCCCCCN1CCCc2cccc(O)c21", "melting point": "33 to 34"}
{"smiles": "CN1CCN(c2ccc(-c3cnc4c(c3)N(Cc3cc(F)ccc3F)CCN4)cn2)CC1", "melting point": "192 to 193"}
{"smiles": "C[C@@H]([C@@H]1CCC(=O)O1)N(Cc1ccccc1)Cc1ccccc1", "melting point": "61 to 62"}
{"smiles": "CCSc1nc(-c2ccccc2)c(-c2ccccc2)s1", "melting point": "73 to 74"}
{"smiles": "CCCCOc1ccc(Oc2cc(=O)c3c(OCCCC)c(OC)c(OCCCC)cc3o2)cc1", "melting point": "62 to 63"}
{"smiles": "CN1C2CCC1CC(NC(=O)c1cc(Cl)cc3oc(-c4ccccc4)nc13)C2", "note": "(centres undefined)", "melting point": "187 to 190"}
{"smiles": "Cc1cc(-c2nc3cccnn3c2-c2ccnc(NC(=O)c3cccc4ccccc34)c2)ccc1F", "melting point": "252 to 253"}
{"smiles": "N#CCOc1cc(-c2ccccc2)[nH]n1", "melting point": 143}
{"smiles": "Nc1c(F)c(N2CC3NCCOC3C2)c(F)c2c1c(=O)c(C(=O)O)cn2C1CC1F", "note": "(centres undefined)", "melting point": "292 to 294"}
{"smiles": "N#Cc1ccc2nc(-c3cccc(Br)c3)cn2c1", "melting point": "205 to 206"}
{"smiles": "O=C(CN1CC(c2ccc(Cl)cc2)CC1=O)Oc1c(Cl)c(Cl)c(Cl)c(Cl)c1Cl", "note": "(centres undefined)", "melting point": "135 to 136"}
{"smiles": "CCc1oc(C2CCCCC2)nc1CC(=O)O", "melting point": "101 to 102"}
{"smiles": "CCCCCCCCCCCCCCOc1cccc(CBr)c1", "melting point": "34 to 35"}
{"smiles": "CC(=O)N1CCc2cc(CCN3CCC(c4noc5cc(F)ccc45)CC3)sc2C1", "melting point": "130 to 132"}
{"smiles": "COc1cc2c(c(OC)c1OC)-c1ccc(NC(=O)C(C)NC(=O)OCc3ccccc3)cc1C(NC(C)=O)CC2", "note": "(centres undefined)", "melting point": "140 to 141"}
{"smiles": "COc1ccc2c(c1)CC1=C2NN(C(=O)OC(C)(C)C)C1c1cccs1", "note": "(centres undefined)", "melting point": "163 to 165"}
{"smiles": "O=C(Nc1cccc(S(=O)(=O)NCC2CC2)c1)c1cnn2c(C(F)F)cc(-c3ccc(C(F)(F)F)cc3)nc12", "melting point": 238}
{"smiles": "N=C(N)Nc1nc(CCCCNc2ncc(Cc3ccc(Cl)cc3)c(=O)[nH]2)cs1", "melting point": "200 to 205"}
{"smiles": "Cc1noc(NS(=O)(=O)c2ccsc2C(=O)N(C)c2ccccc2)c1Br", "melting point": "51 to 55"}
{"smiles": "C/C=C(\\c1ccccc1)c1cc2cc(OC)ccc2[nH]1", "melting point": "128 to 130"}
{"smiles": "COC(=O)C[C@H](O)CC(=O)C=Cc1c(-c2ccc(F)cc2)c(-c2ccccc2)c(C(=O)Nc2ccccc2)n1C(C)C", "melting point": "72 to 74"}
{"smiles": "O=c1[nH]c(=Cc2cccs2)c(=O)[nH]c1=Cc1ccc2ccccc2n1", "melting point": "288 to 289"}
{"smiles": "CCCCOc1cc(C(=O)O)cc([N+](=O)[O-])c1-c1ccccc1", "melting point": "133 to 134"}
{"smiles": "CC(C)c1nc(CN2C(=O)C3(COc4cc5c(cc43)OCO5)c3ccccc32)co1", "note": "(centres undefined)", "melting point": "118 to 120"}
{"smiles": "CC(C)(CO)c1cc2c(cc1Cl)C=C(C(=O)O)C(C(F)(F)F)O2", "note": "(centres undefined)", "melting point": "204 to 205"}
{"smiles": "COc1nc(-n2cc(C(=O)O)c(=O)c3cc(F)c(F)c(Cl)c32)c(F)cc1F", "melting point": "205 to 210"}
{"smiles": "Cc1cnc2c(NC(=O)c3c(Cl)cccc3Cl)ccc(C)c2c1-n1ccnc1", "melting point": "214 to 216"}
{"smiles": "ON=C(Cc1ccc(F)cc1)c1ccncc1", "melting point": 155}
{"smiles": "Nc1nnc(SCC(CS(=O)(=O)c2ccc(-c3ccc(Cl)cc3)cc2)C(=O)O)s1", "note": "(centres undefined)", "melting point": "184 to 186"}
{"smiles": "COc1cccc2c(O)c(CO)cnc12", "melting point": "> 350"}
{"smiles": "COC(=O)C1Cc2cc(OC)ccc2N1S(=O)(=O)c1ccc(I)cc1", "note": "(centres undefined)", "melting point": 154}
{"smiles": "CC(C)(C)C(=O)Nc1nc(O)c2cc(C#Cc3ccc(C(=O)O)cc3)cnc2n1", "melting point": "> 250"}
{"smiles": "NC(=O)Cc1ccccc1CSc1nc2ccccc2[nH]1", "melting point": "218 to 222"}
{"smiles": "CCOC(=O)C(=CNc1ccc2nc(C)n(C)c2n1)C(=O)OCC", "melting point": "128 to 130"}
{"smiles": "CCc1nc(-c2cc3cc(OCCNC[C@H](O)COc4ccccc4)ccc3o2)no1", "melting point": "97 to 98"}
{"smiles": "CCc1cc(CC)c2sc3ccccc3c(=O)c2c1", "melting point": 60}
{"smiles": "CC(=O)Oc1c2cc(C(F)(F)F)c(C(F)(F)F)cc2c(OC(C)=O)c2cc3ccccc3cc12", "melting point": "149 to 153"}
{"smiles": "O=C(NN=Cc1cc(Cl)cc(Cl)c1O)c1cccc(OC(F)(F)F)c1", "melting point": "180 to 182"}
{"smiles": "CN(C)c1nc(Br)cnc1NS(=O)(=O)c1cccc2c(N(C)C)cccc12", "melting point": "180 to 182"}
{"smiles": "O=C1OC(Cc2ccccc2)=NC1=Cc1cccs1", "melting point": "193 to 195"}
{"smiles": "O=c1[nH]c(N2CCN(CCCCN3CCCCC3)CC2)cc2ccc(Br)cc12", "melting point": "211 to 212"}
{"smiles": "CC(C)C[C@@H](OC(=O)c1cccnc1)C(=O)O", "melting point": "101 to 103"}
{"smiles": "CCCCc1nn(Cc2ccccc2C(=O)OC)c(=O)n1Cc1ccc(-c2ccccc2-c2nnn[nH]2)cc1", "melting point": "79 to 80"}
{"smiles": "CCOC(=O)N1CC(C)C2=NNC(=O)CC2C1", "note": "(centres undefined)", "melting point": "101 to 103"}
{"smiles": "O=C(O)c1cc2cc(OC(F)F)ccc2nc1C(=O)O", "melting point": 226}
{"smiles": "Clc1ccc(-c2cc(C3CCN(Cc4ccccc4)CC3)no2)cc1", "melting point": "112 to 114"}
{"smiles": "COC(=O)C(C)(C)Cc1c(SC(C)(C)C)c2cc(OCc3ccc4cc(F)c(F)cc4n3)ccc2n1Cc1ccc(Cl)cc1", "melting point": "171 to 173"}
{"smiles": "CC(C)n1c(C=CC=O)c(-c2ccc(F)cc2)c(-c2ccc(F)cc2)c1C=CC=O", "melting point": 207}
{"smiles": "COc1cc2c(-c3ccc(Cl)cc3)csc2c(Cl)c1Cl", "melting point": "190 to 191"}
{"smiles": "O=C(Cc1ccccc1C(F)(F)F)c1c(O)c2cccnc2n(-c2ccccc2)c1=O", "melting point": "140 to 142"}
{"smiles": "Oc1ccc2c(c1)CCCC(c1ccccc1)=C2c1ccc(OCCCCCSCc2ccco2)cc1", "melting point": 171}
{"smiles": "c1cc(-c2ccc(OCCCN3CCCCC3)cc2)ccc1CN1CCCCC1", "melting point": 90}
{"smiles": "CC(C)(C)OC(=O)N1C(=O)C2(COc3cc4c(cc32)OCCO4)c2ccccc21", "note": "(centres undefined)", "melting point": "171 to 172"}
{"smiles": "CCOC(=O)COc1cccc(-c2nnc(Nc3cccc(Br)c3)s2)c1", "melting point": 175}
{"smiles": "CC1OC(C)(C)c2cc(-c3ccc(C#N)n3C)ccc2N1C(=O)OCC1c2ccccc2-c2ccccc21", "note": "(centres undefined)", "melting point": "63 to 64"}
{"smiles": "Oc1cccc(C(O)CCCCCOc2cccc(Cl)c2)c1", "note": "(centres undefined)", "melting point": "125 to 127"}
{"smiles": "O=[N+]([O-])c1ccc(N2CCN(Cc3ccccc3)CC2)cc1CS(=O)(=O)c1ccccc1", "melting point": "145 to 146"}
{"smiles": "O=C1C(=O)c2ccccc2C2=C1SCC1(CCN(C(=O)c3cccc([N+](=O)[O-])c3)CC1)O2", "melting point": "160 to 162"}
{"smiles": "Cc1c(NCCNCC(O)COc2ccccc2)n(C)c(=O)n(C)c1=O", "note": "(centres undefined)", "melting point": "81 to 82"}
